Measured values from a melting point compilation (Tetko et al.; mined from patent text by program, amines drawn as free bases though some values may be those of a salt).

Structure (SMILES)	melting point [°C]
N#Cc1ccc(-c2cn(-c3ccc(C#N)cc3)c(SCc3cccnc3)n2)cc1	218 to 225
Clc1ccc2c(Br)ccnc2c1	102 to 103
C=C(C(=C)c1cc(C)sc1C)c1cc(C)sc1C	43 to 44
Cc1cc(-c2ccc(Cl)c(Cl)c2)nc(-n2cnc(-c3ccc(S(N)(=O)=O)cc3)c2)n1	282
O=C1CCN(CC(c2ccccc2)c2ccccc2)CC1C1(O)CCN(CC(c2ccccc2)c2ccccc2)CC1 (stereo unspecified)	125 to 127
Cc1ccc(Oc2noc(=O)n2S(=O)(=O)c2c(C)noc2C)c(C)c1	135 to 136
Clc1ccc2c3c(cccc13)C(NCCCCCn1ccnc1)=N2	132 to 134
CC(CCC(=O)C(C)(C)OO)C1CCC2C3CC=C4CC(O)CCC4(C)C3CCC12C (stereo unspecified)	146 to 147
Nc1nc(N)c2cc(Oc3ccc(Cl)cc3)ccc2n1	226 to 228
C=CC(=O)c1ccc(O)cc1	99 to 103
O=C(N=NC=C(Cl)Cl)c1ccccc1	50 to 51
N#Cc1c(-c2ccccc2)nn2ccccc12	138 to 139
O=c1ccc2c3ccccc3[nH]c2n1-c1ccccc1	308 to 309
CCCCCC(=O)NCCc1ccc(S(=O)(=O)NC(=O)c2ccc(C(=O)NCC(=O)OC)nc2)cc1	128 to 130
CN1C(=O)c2c(Oc3ccccc3O)cc3[nH]c4cc(O)ccc4c3c2C1=O	200
COC(=O)c1cnc2cccc(OC)c2c1	102
COc1cc(OC)cc(C(=CC#N)c2ccc3ncccc3c2)c1	142 to 144
CC(=O)NCCNc1cccc(-c2cc(-c3ccc(F)cc3O)nc(NC(=O)c3ccco3)c2C#N)c1	158 to 160
CC(C)COc1c(-c2ccc(S(C)(=O)=O)cc2)cnn(-c2ccc(F)cc2)c1=O	121 to 128
CCCCCCCNC(=O)Nc1ccc(-n2nc(C(F)(F)F)cc2C(F)(F)F)cc1	129 to 130

Structure (SMILES)	melting point [°C]
N#CCCNC(=O)c1cccc(-c2cccc3nn(Cc4cccc(F)c4)cc23)c1	170 to 171
CCOC(CSc1ccc2c(c1)CCN2C(C)=O)OCC	< 52
CSCCn1nc(-c2cc(C(C)(C)C)c(O)c(C(C)(C)C)c2)c2cccnc21	104 to 106
Cn1nnnc1SCCCn1cc(C2=C(c3cn(C)c4ccccc34)C(=O)NC2=O)c2ccccc21	95 to 97
CCCCOC(=O)c1c(Cl)nc(CCCC)n1Cc1ccc2oc(-c3ccccc3-c3nnn[nH]3)c(Br)c2c1	88 to 90
CN(CCCNC(=O)c1ccccc1)CCCc1c[nH]c2ccccc12	73 to 74
COc1ccc(-c2ccc3c(-c4ccccc4)c(OC)ccc3c2)cc1	157 to 160
O[C@H](COc1cccc2[nH]ccc12)CN1CC=C(c2c[nH]c3cccc(F)c23)CC1	90 to 95
O=c1[nH]c2cccnc2n1-c1cc(F)ccc1F	229
NS(=O)(=O)c1ccc(-c2cccc(-c3nc(-c4ccc(C(F)(F)F)c(F)c4)cc(C(F)(F)F)n3)c2)s1	214
c1c(NC23CC4CC(CC(C4)C2)C3)nc(NC23CC4CC(CC(C4)C2)C3)nc1N1CCNCC1	168 to 175
COc1nc(C)cnc1NS(=O)(=O)c1cnccc1-c1ccc(CC(C)C)cc1	232 to 233
COc1cccc2c1OCc1nc(C(=O)O)cn1-2	275 to 277
Cc1ccc(S(=O)(=O)OCC(NC(=O)OC(C)(C)C)C(C)C)cc1 (stereo unspecified)	85
CCCc1nc(C(=O)C(C)(C)C)c(C#N)n1Cc1ccc(-c2ccccc2-c2nnnn2C(c2ccccc2)(c2ccccc2)c2ccccc2)cc1	107 to 110
NC(=O)CN1C(=O)C(=Cc2ccc(OCCc3ccccc3)c(OCc3ccccc3)c2)SC1=S	212 to 214
CSC(=O)C(C#N)C(=O)Nc1ccc(C(F)(F)F)cc1 (stereo unspecified)	196 to 198
CN1C[C@@H]2C[C@@]1(C(=O)c1ccc(-c3[nH]nc4c3C(=O)c3c(NC(=O)NN5CCOCC5)cccc3-4)s1)CN2	224 to 225
O=C(O)[C@H](CCc1ccc(F)cc1F)NC(=O)C(F)(F)F	62 to 83.5
O=C(NC1CN2CCC1CC2)c1cc(Cl)cc2oc(-c3ccccc3)nc12 (stereo unspecified)	180 to 183

Structure (SMILES)	melting point [°C]
CCOC(CCOc1cc(Cc2cnc(N)nc2N)cc(OC)c1OC)OCC	105 to 106
c1ccc(CN2CCN(Cc3ccccc3)[C@@H](CCc3cccnc3)C2)cc1	94 to 95.5
CN(C)Cc1ccc(CSCCNC(=N)N[N+](=O)[O-])o1	103 to 104
CCCCn1c(=O)c(C(=O)O)c(-c2ccc(Br)cc2)c2cccnc21	158 to 160
CCc1ncnc(NC(CC)c2ccc(Oc3ncccn3)cc2)c1Cl (stereo unspecified)	100 to 112
Cc1cc(C)c2c(c1O)C(NS(C)(=O)=O)CC2 (stereo unspecified)	114 to 116
O=C(NCc1ccc(Cl)c(Cl)c1)c1cn2c(=O)n(Cc3ccc(Cl)cc3)c(=O)cc2s1	218 to 219
Cc1cc(C)c(C(=O)CCCCC(=O)O)c(O)c1C	146 to 148
CCc1n[nH]c(CC)c1CCCCCCOc1ccc(OC)cc1[N+](=O)[O-]	103 to 105
CCCn1c(-n2nc(-c3c(-c4ccccc4)nn4ccccc34)ccc2=O)cc(=O)n(CC(=O)OC)c1=O	191 to 195
CC(C)(C)OC(=O)NS(=O)(=O)c1ccc(Cl)cc1	98 to 99
COc1cc(C(=O)N2CCN(C(=O)OC(C)(C)C)C(C(=O)O)C2)cc(OC)c1OC (stereo unspecified)	188 to 190
O=Cc1ccc(C=Cc2ccccc2)cc1	112 to 113
O=C(CN1CS(=O)(=O)CC1=O)N1CCN(C(c2ccccc2)c2ccccc2)CC1	209 to 211
COc1ccccc1-n1c(=O)[nH]c2c(C(N)=O)nc(-c3cccc4[nH]ccc34)nc21	312 to 313
O=S(=O)(Nc1nccnc1OCc1ccccn1)c1cccc(Cl)c1Cl	167 to 168
CCC(O)(c1ccc(OCCCN2CCN(C)CC2)cc1)c1cccc(C(F)(F)F)c1 (stereo unspecified)	129 to 130
CCNC(=O)OCCCCCCCCC1Cc2c(c(OC)c(OC)c(OC)c2OC)C1	85 to 86
CC(C)(C)OC(=O)N[C@@H](Cc1ccc(-c2ccc(F)cc2)cc1)C(=O)OCc1ccccc1	103 to 104

Now from value to compound:

melting point [°C]	Structure (SMILES)
97 to 98	[N-]=[N+]=NCC1CN(c2cc(F)c(-c3cccnc3)c(F)c2)C(=O)O1 (stereo unspecified)
120 to 122	Cc1cccc2c1-c1ccccc1C2CO (stereo unspecified)
131 to 136	C[C@]1(CN2CCN(NCc3ccc(C(F)(F)F)cc3)CC2)Cn2cc([N+](=O)[O-])nc2O1
58 to 60	C[C@H]1CCCC(C)(C)[C@@H]1[C@@H](O)c1cccc(Cl)c1
42.3 to 44.6	O=C1NC(=O)C(Cc2ccc(OCCn3ccc4ccccc43)cc2)S1 (stereo unspecified)
207	COc1ccc(C(=O)N2CCCCc3cc(C4=NNC(=O)SC4C)ccc32)cc1OC (stereo unspecified)
146	COc1ccc2c(c1)[C@@H](Oc1ccc3c(c1)CCC(=O)N3)[C@H](N1CCC[C@@H](N)C1)C2
191 to 193	Nc1sc2c(c1C(=O)c1ccccn1)CCCC2
93 to 95	Cc1nc(CO)c(OCc2ccccc2)c(=O)n1C
70 to 74	CNC(=O)NC(=O)C(CC1CCC(=O)C1)c1ccc(Cl)c(Cl)c1 (stereo unspecified)
158 to 159	COc1ccc(S(=O)(=O)Nc2ccccc2NC(=O)c2ccco2)cc1
215 to 218	CS(=O)(=O)c1ccc(-c2cnn(CC(F)(F)F)c(=O)c2C2CCCCC2)cc1
166 to 167	O=C1C=CC(O)(c2cc3cc(F)ccc3n2S(=O)(=O)c2ccccc2)C=C1
95 to 98	CC(=S)NC[C@H]1CN(c2ccc(C3CCS(=O)(=O)N(C)C3)c(F)c2)C(=O)O1 (stereo partly specified)
192 to 195	Cc1ccc(NC(=O)c2ccc(N)c([N+](=O)[O-])c2)cc1C
196 to 200	CC12C=CC(=O)C=C1C(F)CC1C2=CCC2(C)C(C(=O)CCl)=CCC12 (stereo unspecified)
124 to 127	CNC(=O)N1CCC(Oc2cccc(C(F)(F)F)c2)(c2ccccc2)CC1
63 to 64	CC(C)(C)[Si](OCCOc1ccc([N+](=O)[O-])cn1)(c1ccccc1)c1ccccc1
175 to 177	O=c1[nH]c2ccc(C(O)CN3CCC(O)(c4ccccc4)CC3)cc2o1 (stereo unspecified)

melting point [°C]	Structure (SMILES)
154 to 155	CC1(C)C=Cc2cc(C#N)c([N+](=O)[O-])cc2O1
98 to 99	c1ccc2c(c1)CCc1ccccc1C2=NCC1CC1
73 to 75	CCc1c(-c2ccc(OC)cc2)c2cc(C(C)=O)c3cccc1n32
221 to 226	NC(=O)c1n[nH]c2ccc([N+](=O)[O-])cc12
162 to 164	COCCN1CCN(c2c(F)cc(N3C[C@H](CNC(C)=O)OC3=O)cc2F)CC1
135 to 136	CCOC(=O)c1oc2cc(-c3ccc(CO)cc3)ccc2c1C
> 300	O=S1(=O)N=C2CCCN2c2ccc(O)cc21
90 to 93	CCOC(=O)N(c1ccc(Cl)cc1)c1ccccc1[N+](=O)[O-]
196 to 197	COc1ccc(CN2c3ccc(Cl)cc3C=C(C(=O)O)C2C(F)(F)F)cc1 (stereo unspecified)
255	C=C(C)C(=O)OC1c2nccnc2C(=O)N1c1ccc2ccc(Cl)nc2n1 (stereo unspecified)
146 to 148	CC(C)(C)c1cc(SCCC(=O)NCC(=O)c2ccccc2)cc(C(C)(C)C)c1O
204 to 206	O=S1(=O)CCC(c2cc(F)ccc2F)(S(=O)(=O)c2ccc(Cl)cc2)CC1
166	CC12CCC(Oc3c(F)c(F)c(C(F)(F)F)c(F)c3F)=CC1=CCC1C2CCC2(C)C(c3cccnc3)=CCC12 (stereo unspecified)
186 to 191	O=C(Nc1ccccc1C(=O)O)c1cccc(OC(F)F)c1
200	CC1(C)c2ccccc2N2Cc3cc(N=Nc4ccc([N+](=O)[O-])cc4)ccc3OC21c1ccccc1 (stereo unspecified)
136 to 139	COc1ccc(S(=O)(=O)N2CC3CCC(C3)C2)c2ccccc12
174 to 175	CCOc1cc(C)ccc1C1CCN(CCCCNC(=O)c2ccc3c(c2)cc(-c2ccc(Cl)cc2)n3C)CC1
167 to 174	CNC1C(O)CC2C3CCC4CC(=O)CCC4(C)C3CCC21C (stereo unspecified)
